As usually defined, the melting point is the temperature of the solid-liquid transition.

In turn, `CN(C)C(=O)c1c(Oc2ccccc2)cccc1Oc1ccccc1` returned a melting point of 109 to 111 °C.

In turn, `Cc1ccc2c(c1)CN1CCCC1C(=O)N2C` (centres undefined) displayed a melting point of 80 to 82 °C.

With `Cc1c(C(=O)O)ccc2c1OCO2`, the melting point lay within 180 to 182 °C.

Compound `CCCC(=O)c1cnc2c(OCCCN(C)C)cccc2c1Nc1ccccc1C` gave a melting point of 109 to 110 °C.

With `CN1CC(Oc2ccc(Nc3cc(-c4cccc(-n5ncc6cc(C(C)(C)C)cc(F)c6c5=O)c4CO)cn(C)c3=O)nc2)C1`, the melting point was above 300 °C.

`CCC(C)c1nn(-c2ccc(C(F)(F)F)cn2)cc1CCCOc1c(C)cccc1CC(=O)O` (centres undefined) showed a melting point of 134 to 135 °C.

Compound `Fc1cc(CC2(Cc3ccnc(F)c3)c3cccnc3-c3ncccc32)ccn1` registered a melting point of 239 to 241 °C.

Turning to `O=C(NCCCl)Oc1ccc(Cl)c2cccnc12`, the melting point was 146 °C.

In the case of `CCCCOc1c(CNC(=O)OC(C)(C)C)n(CC2CC2)c(=O)c2ccc(C(=O)O)cc12`, the melting point lay in the range of 197 to 198 °C.

Take `CCCCCCOC(=O)C(O)C1OC(n2cnc3c(N)ncnc32)C(O)C1O` (centres undefined): the melting point lay in the range of 145 to 147 °C.

Consider `CCCc1c(OCCCSc2ccc(C(=O)CCC(=O)O)c(O)c2)ccc(C(C)=O)c1O`, for which the melting point came out at 140 °C.

Compound `CSc1cn(C(c2ccccc2)(c2ccccc2)c2ccccc2)c(F)n1` yielded a melting point of 142 to 143 °C.

In turn, `Nc1cccn2nc(SCc3ccccc3)nc12` gave a melting point of 116 to 117 °C.

On to `CN1CCN(Cc2cnc(S)n2Cc2cc(F)cc(F)c2)CC1`, for which the melting point was in the range of 200 to 201 °C.

Take `Cc1c(CO)cc([N+](=O)[O-])c(Cl)c1[N+](=O)[O-]`: the melting point fell in the range of 158 to 160 °C.

Regarding `N#CC1(c2ccc(F)cc2)CCC(N2CCC3(CC2)C(=O)NCN3c2ccccc2)CC1` (centres undefined), the melting point was determined as 236 °C.

With `COc1c(C)c(Cc2ccc(Cl)cc2)c(OC)c2ccccc12`, the melting point was in the range of 101 to 102 °C.

Turning to `CSC(=O)c1c(O)ccc2ccccc12`, the melting point was 111 to 112 °C.

Consider `CCOC(=O)COc1ccc(C(=O)Nc2ccccc2Sc2cccc(O)c2-c2nnn[nH]2)cc1`, for which the melting point was 155 to 157 °C.

`CCN(CC)Cc1ccc(CN2C(=O)COc3c(C)cc(C=C4SC(=S)NC4=O)cc32)cc1`: the melting point is 250 to 252 °C.

`CCOC(=O)c1cn(CC)c2nc3ccccc3n2c1=O`: the melting point lay within 252 to 253 °C.

Consider `O=c1oc(-c2ccccc2)cc(O)c1Sc1cccc2ccccc12`, for which the melting point was in the range of 242 to 243 °C.

With `CC(F)(F)CCc1ccccc1S(N)(=O)=O`, the melting point is 70 to 72 °C.

As to `O=C(NC(=O)c1c(F)cccc1Cl)Nc1ccc(Cl)cn1`, the melting point lay within 210 to 215 °C.

`c1ccc(C2=N[C@@H](c3ccccc3)[C@H](N3CCOCC3)S2)cc1` (relative stereo): the melting point lay within 92 to 94 °C.

As for `CCCCCCC(CO)n1cnc(C(N)=O)c1` (centres undefined), the melting point fell in the range of 97.5 to 100 °C.

`Nc1cc(C(=O)c2ccccc2)ccc1N1CCOCC1` came in with a melting point of 138 °C.

With `COC(=O)CCC#Cc1cc(Cl)ccc1NS(=O)(=O)c1cccc(Cl)c1Cl`, the melting point amounted to 64 °C.

Compound `CCN(CC)CC1CCCCN1CC(=O)N1c2ccccc2NC(=O)c2c1c(C)cn2C` (centres undefined) gave a melting point of 176 to 178 °C.

As to `COc1cccc2c(Nc3ccc(C(=O)NC4CCN(Cc5ccccc5)CC4)cc3)c(C(=O)NC3CCN(CCc4ccccc4)CC3)cnc12`, the melting point lay in the range of 216 to 220 °C.

`O=C(O)Cn1cccc(NC(=O)CCc2ccccc2)c1=O` returned a melting point of 195 to 197 °C.

With `O=C1CSC2CN=C(c3ccccc3)c3cc(Cl)ccc3N12` (centres undefined), the melting point lay within 228 to 230 °C.

Take `CCCCc1cc(O)n2nccc2n1`: the melting point was in the range of 177 to 178 °C.

In turn, `COC(=O)c1ccc(-c2nc3cc(Cl)c(Cl)cc3[nH]2)cc1` gave a melting point of 240 to 250 °C.

In the case of `CC(NC(=O)Cc1cc(F)cc(F)c1)C(=O)NC1NC(=O)Cc2cc(F)ccc21` (centres undefined), the melting point fell in the range of 195 to 200 °C.

For `CCn1c(=O)c2c(ncn2CCCCC2CO2)n(CC)c1=O` (centres undefined), the melting point fell in the range of 58 to 59 °C.

As to `CCOc1ccc(C(=O)Nc2c(Cl)cncc2Cl)c2c3ccccc3n(Cc3ccccc3)c12`, the melting point lay within 210 to 213 °C.

`O=C(O)CNCC(=O)NC[C@@H]1CC(c2ccc(-c3ccc(N4C[C@H](Cn5ccnn5)OC4=O)cc3F)cn2)=NO1`: the melting point lay in the range of 200 to 210 °C.

The compound `CC(=O)NNC1=Nc2sccc2C(c2ccccc2)=NC1` displayed a melting point of 194 to 196 °C.

`O=C(Cl)N1CCC(Oc2cccc3c2CCC3)C1` (centres undefined): the melting point fell in the range of 128 to 129 °C.

As to `CC(=O)Nc1cc(I)ccc1Sc1ccc([N+](=O)[O-])cc1[N+](=O)[O-]`, the melting point was in the range of 224 to 226 °C.

`CC(C)c1ccnc(NC(=S)NCCC2=CCCCC2)c1`: the melting point is 105 to 106 °C.

For `O=C1CN2Cc3cc(C(=O)c4ccccc4)ccc3N=C2N1`, the melting point is above 300 °C.

Consider `CC(C)(C)c1cc(C2=CCCCC2)c(O)c(C(C)(C)C)c1`, for which the melting point was 102 to 104 °C.

`Fc1ccc(C2=NOC(CN=C=S)C2)cc1` (centres undefined) returned a melting point of 59 to 61 °C.

With `CN1CCC(c2cccc3ccc(C(=O)NCCCc4ccccc4)cc23)CC1`, the melting point fell in the range of 47 to 50 °C.

`COc1ccc(C(O)CNCc2cccc([N+](=O)[O-])c2)cc1OC` (centres undefined) came in with a melting point of 105 to 107 °C.

With `CCCC(C)(C)NC(=O)NC1=CC(=O)OC1`, the melting point lay within 130 to 132 °C.

`CC(C=CC(C)C(C)(C)O)C1CCC2C(=O)CCCC21C` (centres undefined) came in with a melting point of 101 to 102 °C.

As to `CCn1nc(-c2ccc(OC)cc2)c(-c2ccc(OC)c(F)c2)cc1=O`, the melting point stood at 162 °C.

In the case of `CC(C)C(NC(=O)Nc1ccc(C(=O)NCC(=O)OCc2ccccc2)cc1)C(=O)N1CCCC1C(=O)NC(C(=O)C(F)(F)F)C(C)C` (mixture of isomers), the melting point was 65 to 70 °C.

In the case of `Cc1cc(C)n(C(=O)C2c3ccccc3Oc3ccccc32)n1`, the melting point was 114 to 115 °C.

`CC(=O)OC1=C(C(=O)c2ccc(C)cc2)C(c2ccc(OC(F)(F)F)cc2)N(c2ccc(C)nn2)C1=O` (centres undefined) showed a melting point of 165 to 166 °C.

The compound `CCCCc1oc2ccc([N+](=O)[O-])cc2c1C(=O)c1ccc(OCCCCCBr)cc1` showed a melting point of 55 °C.

`CC(C)(Oc1ccc(CCC(=O)c2ccc(-c3ccccc3)s2)c(Cl)c1Cl)C(=O)O` returned a melting point of 179 to 180 °C.

Take `COCN1C(=O)OC(C)(C)c2cc(-c3cc(F)cc(C#N)c3)ccc21`: the melting point fell in the range of 169 to 171 °C.

Regarding `CCCCCCCCCCCCCCCCC12CCC3=C(CCc4cc(OC)ccc43)C1CCC2=O` (centres undefined), the melting point was 54 to 56 °C.

In turn, `CCC(=O)Nc1c(C#N)cnn1-c1nc(NCc2ccccc2)c(C(F)(F)F)cc1Cl` came in with a melting point of 139 to 142 °C.

Take `CCOC(=O)c1csc(S)n1`: the melting point fell in the range of 120 to 121 °C.

Compound `CCCN(C)C(=O)N(C)C(=O)Nc1ccccc1` showed a melting point of 63 to 64 °C.

Turning to `CON=C(OC)C(=O)c1nccn1Cc1ccccc1`, the melting point lay in the range of 55 to 58 °C.

With `COc1cc(OS(C)(=O)=O)ccc1-c1nc2cc3c(cc2[nH]1)NC(=O)C3(C)C`, the melting point lay within 233 to 235 °C.

Compound `CONC1=NS(=O)(=O)c2cc(Cl)ccc2N1` came in with a melting point above 220 °C.

For `CC(C)(C)C1(O)OC(=O)c2ccc(Cl)cc21` (centres undefined), the melting point lay in the range of 160 to 161 °C.

Turning to `CC(=O)CC(=O)Nc1cccc(OCc2ccccc2)c1`, the melting point was determined as 80 °C.

In turn, `CCn1c(=O)c2[nH]c(/C=C/c3cc(C)ccc3C)nc2n(CC)c1=O` came in with a melting point of 282 °C.

Take `Cc1cccc(C(C)(C)O)c1N`: the melting point was in the range of 78 to 79 °C.

Regarding `O=C(O)CC1CCCc2c1n(Cc1ccc(Cl)cc1)c1c(F)cccc21` (centres undefined), the melting point lay in the range of 94 to 94.5 °C.

In the case of `CC(=O)n1[nH]c(=O)n(-c2ccc(Cl)cc2)c1=O`, the melting point fell in the range of 201 to 203 °C.

`COc1ccc(-c2nc3c(C(N)=O)cccc3n2C)cc1` gave a melting point of 289 to 292 °C.

With `COc1cccc([C@H]2O[C@H](CC(=O)Nc3cc(CCC(=O)O)ccc3C)C(=O)N(CC(C)(C)CO)c3ccc(Cl)cc32)c1OC`, the melting point was in the range of 154 to 155 °C.

For `COC(=O)c1ccccc1S(=O)(=O)NC(=O)Nc1nnc(C)c(C)n1`, the melting point was in the range of 150 to 151 °C.

For `CCC(=O)c1c(C(=O)C(C)C)c2ccc(C(N)=O)cc2n1Cc1ccccc1Cl`, the melting point was 145 to 147 °C.

As for `COc1ccccc1N1CCN(CCCCc2ccc(C3CCC(=O)N3)cc2)CC1` (centres undefined), the melting point fell in the range of 130 to 131 °C.

Turning to `CCOC(=O)CN=C(c1ccccc1)c1cc(Cl)ccc1N`, the melting point lay in the range of 130 to 135 °C.

The compound `C1=NCCN1c1ccccc1` had a melting point of 45 °C.

As to `CC(=O)c1cc(Cl)sc1S(N)(=O)=O`, the melting point is 178 to 179 °C.

For the compound `CC(c1cccc(O)c1)N(C)C` (centres undefined), the melting point lay within 85 to 86 °C.

`CCCn1c(=O)c2c(NC)n[nH]c2n(Cc2ccccc2)c1=O`: the melting point lay within 307 to 310 °C.

For the compound `CC(=O)Nc1ccc(SCC(=O)NCC(=O)N(C)c2ccc(Cl)c(COc3cccc4ccc(C)nc34)c2Cl)cc1`, the melting point fell in the range of 179 to 180 °C.

`CN(C)CCC(Oc1ccc(C(F)(F)F)cc1)c1ccccc1` (centres undefined) displayed a melting point of 117 to 119 °C.

`CN(C)C(=O)c1nc2n(n1)-c1ccccc1N(c1ccccc1)C2` had a melting point of 150 to 165 °C.

`COC(=O)[C@H](Cc1ccccc1)NC(=O)c1cnccn1` returned a melting point of 152 to 155 °C.

As to `O=C(O)c1cccc(-c2cc(-c3ccc(C(F)(F)F)cc3)no2)c1`, the melting point is 272 to 273 °C.

In turn, `COc1ccc(OC)c(-c2cc(F)cc3c2OC(CN)C3)c1` (centres undefined) came in with a melting point of 120 to 122 °C.

As for `COc1ccc(-c2nc(C(F)(F)F)c(Br)[nH]2)cc1Cl`, the melting point came out at 228 °C.

In the case of `CCCCc1nc2ccccc2n1Cc1ccc(-c2ccccc2C(=O)O)cc1`, the melting point lay within 225 to 227 °C.

The compound `COc1ccc([N+](=O)[O-])c(C2OCCO2)c1OC` returned a melting point of 74 to 76 °C.

Regarding `N=C(N)c1ccc(C(=O)NCCCC(=O)NCCC(=O)O)cc1`, the melting point is above 250 °C.
